For series [1], the target named is T1, polycystin-2 (PC2, TRPP2), PC2_F604P (Homo sapiens, UniProt Q13563, F604P).
T1 sequence (Q13563 185-719 F604P): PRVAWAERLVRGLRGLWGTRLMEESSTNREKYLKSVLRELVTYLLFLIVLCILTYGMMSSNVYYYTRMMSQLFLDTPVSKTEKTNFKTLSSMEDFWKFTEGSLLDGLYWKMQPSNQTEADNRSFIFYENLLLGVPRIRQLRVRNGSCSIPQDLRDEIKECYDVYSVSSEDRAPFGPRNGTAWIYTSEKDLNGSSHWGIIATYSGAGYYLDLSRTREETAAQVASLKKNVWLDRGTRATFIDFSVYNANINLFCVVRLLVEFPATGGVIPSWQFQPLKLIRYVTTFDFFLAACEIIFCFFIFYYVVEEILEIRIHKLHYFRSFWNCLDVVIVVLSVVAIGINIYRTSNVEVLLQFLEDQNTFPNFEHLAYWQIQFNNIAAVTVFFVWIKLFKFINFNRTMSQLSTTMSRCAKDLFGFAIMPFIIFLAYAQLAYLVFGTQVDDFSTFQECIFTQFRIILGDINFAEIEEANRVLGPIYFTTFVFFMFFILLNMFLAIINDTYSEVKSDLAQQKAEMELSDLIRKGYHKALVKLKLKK
The series is described as follows: cryo-EM structure. In kind it is cell-based.

Series [2] deals with the molecule itself. Briefly: cryo-EM structure.

For `CC1CC(C)(C)N(C(=O)CN2C(=O)c3ccccc3C2=O)c2ccccc21` (centres unmarked) [ML-SA1], in series [1], the EC50 turned out to be 5.2 µM.

B1: truncated PC2_F604P protein containing the fragment Pro185-Lys719 (domain or fragment, human, UniProt Q13563 185-719, looked up)
chain: PRVAWAERLVRGLRGLWGTRLMEESSTNREKYLKSVLRELVTYLLFLIVLCILTYGMMSSNVYYYTRMMSQLFLDTPVSKTEKTNFKTLSSMEDFWKFTEGSLLDGLYWKMQPSNQTEADNRSFIFYENLLLGVPRIRQLRVRNGSCSIPQDLRDEIKECYDVYSVSSEDRAPFGPRNGTAWIYTSEKDLNGSSHWGIIATYSGAGYYLDLSRTREETAAQVASLKKNVWLDRGTRATFIDFSVYNANINLFCVVRLLVEFPATGGVIPSWQFQPLKLIRYVTTFDFFLAACEIIFCFFIFYYVVEEILEIRIHKLHYFRSFWNCLDVVIVVLSVVAIGINIYRTSNVEVLLQFLEDQNTFPNFEHLAYWQIQFNNIAAVTVFFVWIKLFKFINFNRTMSQLSTTMSRCAKDLFGFAIMPFIIFLAYAQLAYLVFGTQVDDFSTFQECIFTQFRIILGDINFAEIEEANRVLGPIYFTTFVFFMFFILLNMFLAIINDTYSEVKSDLAQQKAEMELSDLIRKGYHKALVKLKLKK
Regarding B1, in series [2], the binding result was “binds”.

As a reminder, the EC50 is the midpoint of the concentration-response curve. A high value points to a need for much substance.

(Values after article PMC10962963 (Proceedings of the National Academy of Sciences of the …, 2024).)
